Measurements reported in PubChem BioAssay (NCI).
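Dose response: 5 concentrations. Exposure: 48 h. Format: 96-well plates. Endpoint: linear interpolation; highest concentration if not reached. Definition used: TGI = concentration required for complete inhibition of growth.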

Legend:
Test in all cases: DTP human tumour cell line panel, 48 h
[1] = tested on: 786-0 renal
[2] = tested on: A498 renal
[3] = tested on: A549 NSCLC
[4] = tested on: ACHN renal
[5] = tested on: BT-549 breast
[6] = tested on: CAKI-1 renal
[7] = tested on: CCRF-CEM leukemia
[8] = tested on: DU-145 prostate
[9] = tested on: EKVX NSCLC
[10] = tested on: HCC-2998 colon
[11] = tested on: HCT-116 colon
[12] = tested on: HCT-15 colon
[13] = tested on: HL-60(TB) leukemia
[14] = tested on: HOP-62 NSCLC
[15] = tested on: HOP-92 NSCLC
[16] = tested on: HS 578T breast
[17] = tested on: HT29 colon
[18] = tested on: IGROV1 ovarian
[19] = tested on: K-562 leukemia
[20] = tested on: KM12 colon
[21] = tested on: LOX IMVI melanoma
[22] = tested on: M14 melanoma
[23] = tested on: MALME-3M melanoma
[24] = tested on: MCF7 breast
[25] = tested on: MDA-MB-231 breast
[26] = tested on: MDA-MB-435
[27] = tested on: MDA-N
[28] = tested on: MOLT-4 leukemia
[29] = tested on: NCI-H23 lung
[30] = tested on: NCI-H460 lung
[31] = tested on: NCI-H522 lung
[32] = tested on: NCI/ADR-RES ovarian
[33] = tested on: OVCAR-3 ovarian
[34] = tested on: OVCAR-4 ovarian
[35] = tested on: OVCAR-5 ovarian
[36] = tested on: OVCAR-8 ovarian
[37] = tested on: PC-3 prostate
[38] = tested on: RPMI-8226 leukemia
[39] = tested on: RXF 393 renal
[40] = tested on: SF-268 CNS
[41] = tested on: SF-295 CNS
[42] = tested on: SK-MEL-2 melanoma
[43] = tested on: SK-MEL-28 melanoma
[44] = tested on: SK-OV-3 ovarian
[45] = tested on: SN12C renal
[46] = tested on: SNB-19 CNS
[47] = tested on: SNB-75 CNS
[48] = tested on: SR leukemia
[49] = tested on: SW-620 colon
[50] = tested on: T-47D breast
[51] = tested on: TK-10 renal
[52] = tested on: U251 CNS
[53] = tested on: UACC-257 melanoma
[54] = tested on: UACC-62 melanoma

C=CCN1C(=O)/C(=C/c2ccccc2)N=C1SC1OC(COC(C)=O)C(OC(C)=O)C(OC(C)=O)C1OC(C)=O (centres undefined)
TGI [1]: > 100 µM | TGI [2]: 99.7 µM | TGI [3]: > 100 µM | TGI [4]: 64.6 µM | TGI [5]: 65.5 µM | TGI [6]: 53.8 µM | TGI [7]: > 100 µM | TGI [8]: 71.6 µM | TGI [9]: 63.7 µM | TGI [10]: > 100 µM | TGI [11]: 83 µM | TGI [12]: > 100 µM | TGI [13]: 60.6 µM | TGI [14]: > 100 µM | TGI [15]: 76.6 µM | TGI [16]: 72.2 µM | TGI [17]: > 100 µM | TGI [18]: 91.1 µM | TGI [19]: > 100 µM | TGI [20]: > 100 µM | TGI [21]: > 100 µM | TGI [22]: > 100 µM | TGI [23]: 62.4 µM | TGI [24]: > 100 µM | TGI [25]: 47.7 µM | TGI [26]: > 100 µM | TGI [27]: > 100 µM | TGI [28]: > 100 µM | TGI [29]: 87.6 µM | TGI [30]: > 100 µM | TGI [31]: 55.4 µM | TGI [32]: 69.4 µM | TGI [33]: 45.8 µM | TGI [34]: > 100 µM | TGI [35]: > 100 µM | TGI [36]: 95.5 µM | TGI [37]: 52.9 µM | TGI [38]: > 100 µM | TGI [39]: 36.6 µM | TGI [40]: 53.4 µM | TGI [41]: > 100 µM | TGI [42]: 48.8 µM | TGI [43]: 76.6 µM | TGI [44]: > 100 µM | TGI [45]: 71.3 µM | TGI [46]: > 100 µM | TGI [47]: 67.8 µM | TGI [48]: > 100 µM | TGI [49]: > 100 µM | TGI [50]: > 100 µM | TGI [51]: > 100 µM | TGI [52]: 58.9 µM | TGI [53]: > 100 µM | TGI [54]: 52.4 µM
